Reference: DBAASP
Values after ≈ are worked out from the molar mass of the structure shown.

How the values were obtained:
Experiment in all cases: ≥ marks a high value that may be exact or a test limit, other limits are often not marked, values filed in µg/mL are converted to µM
Bacillus subtilis PS832 = system: Bacillus subtilis PS832
Escherichia coli DL7 = system: Escherichia coli DL7
[1] = system: Klebsiella aerogenes ATCC 13048
[2] = system: Staphylococcus epidermidis ATCC 12228
[3] = system: Pseudomonas aeruginosa ATCC 9027
[4] = system: Candida albicans FRR 5580
[5] = system: Pseudomonas aeruginosa CCARM 2003
[6] = system: Staphylococcus aureus CCARM 3126
[7] = system: Pseudomonas aeruginosa CCARM 2002
[8] = system: Pseudomonas aeruginosa CCARM 2163
[9] = system: Salmonella typhimurium CCARM 8003
[10] = system: Staphylococcus aureus CCARM 3108
[11] = system: Salmonella typhimurium CCARM 8009
[12] = system: Pseudomonas aeruginosa KCTC 1637
[13] = system: Staphylococcus aureus CCARM 3114
[14] = system: Escherichia coli CCARM 1229
[15] = system: Escherichia coli KCTC 2593
[16] = system: Pseudomonas aeruginosa CCARM 2095
[17] = system: Bacillus subtilis KCTC 1022
[18] = system: Salmonella typhimurium CCARM 8007
[19] = system: Staphylococcus aureus KCTC 3881
[20] = system: Staphylococcus aureus KCTC 1916
[21] = system: Escherichia coli CCARM 1238
[22] = system: Pseudomonas aeruginosa KCTC 2513
[23] = system: Staphylococcus aureus KCTC 1621
[24] = system: Acinetobacter baumannii CCARM 12037
[25] = system: Salmonella typhimurium KCTC 1926
[26] = system: Escherichia coli KCTC 2571
[27] = system: Escherichia coli KCTC 1682
[28] = system: Acinetobacter baumannii CCARM 12036
[29] = system: Acinetobacter baumannii CCARM 12035
[30] = system: Staphylococcus aureus CCARM 3090
[31] = system: Pseudomonas aeruginosa KCTC 2004
[32] = system: Staphylococcus epidermidis KCTC 1917
[33] = system: Bacillus subtilis KCTC 1021
[34] = system: Staphylococcus aureus CCARM 3089
[35] = system: Acinetobacter baumannii CCARM 12005
[36] = system: Bacillus subtilis KCTC 3068
[37] = system: Pseudomonas aeruginosa ATCC 27853
[38] = system: Xanthomonas axonopodis pv. glycines ISBF 327
[39] = system: Staphylococcus aureus ATCC 29313
[40] = system: Escherichia coli ATCC 25922
[41] = system: Staphylococcus aureus BCRC 10780
[42] = system: Streptococcus pneumoniae BCRC 10794

CC[C@H](C)[C@H](NC(=O)[C@H](CCCN=C(N)N)NC(=O)[C@H](CCCCN)NC(=O)[C@H](CC(C)C)NC(=O)[C@H](CC(C)C)NC(=O)CNC(=O)[C@H](Cc1cnc[nH]1)NC(=O)[C@H](C)NC(=O)[C@@H](N)CC(=O)O)C(=O)N[C@@H](CCCCN)C(=O)N[C@H](C(=O)N[C@@H](CC(C)C)C(=O)N[C@@H](CC(C)C)C(N)=O)[C@@H](C)O [DAHGLLKRIKTLL] gave an MIC (Bacillus subtilis PS832) of 2 µM (≈ 2.95 µg/mL), an MIC (Escherichia coli DL7) of 8 µM (≈ 11.8 µg/mL) and an MIC [1] of no less than 32 µM. It also gave an MIC [2] of 16 µM (≈ 23.6 µg/mL).
Compound CC(C)[C@H](NC(=O)[C@@H]1CCCN1C(=O)[C@@H](N)Cc1ccccc1)C(=O)N[C@H](C(=O)N[C@@H](Cc1c[nH]c2ccccc12)C(=O)N[C@@H](CCCN=C(N)N)C(=O)N[C@@H](Cc1c[nH]c2ccccc12)C(=O)N[C@@H](Cc1c[nH]c2ccccc12)C(=O)N[C@@H](CCCCN)C(=O)N[C@@H](Cc1c[nH]c2ccccc12)C(=O)N[C@@H](Cc1c[nH]c2ccccc12)C(=O)N[C@@H](CCCCN)C(=O)NCC(=O)O)[C@@H](C)O [FPVTWRWWKWWKG] has an MIC [3] of 67.1 µM (≈ 125 µg/mL) and an MIC [4] of no less than 134 µM.
For CC[C@H](C)[C@H](NC(=O)CNC(=O)[C@H](CCCN=C(N)N)NC(=O)[C@H](Cc1ccccc1)NC(=O)[C@@H](NC(=O)[C@H](Cc1cnc[nH]1)NC(=O)[C@H](Cc1cnc[nH]1)NC(=O)[C@H](Cc1ccccc1)NC(=O)[C@H](C)N)[C@@H](C)CC)C(=O)N[C@H](C(=O)N[C@@H](Cc1cnc[nH]1)C(=O)N[C@H](C(=O)NCC(=O)N[C@@H](CCCCN)C(=O)N[C@H](C(=O)N[C@H](C(=O)N[C@@H](Cc1cnc[nH]1)C(=O)N[C@@H](CCCN=C(N)N)C(=O)N[C@@H](CC(C)C)C(=O)N[C@H](C(=O)N[C@H](C(=O)NCC(=O)O)[C@@H](C)O)C(C)C)[C@@H](C)CC)[C@@H](C)O)C(C)C)C(C)C [AFHHIFRGIVHVGKTIHRLVTG], the MIC [5] was 2 µM (≈ 4.99 µg/mL), the MIC [6] was 8 µM (≈ 20 µg/mL) and the MIC [7] was 2 µM (≈ 4.99 µg/mL). For the same compound, the MIC [8] was 2 µM (≈ 4.99 µg/mL), the MIC [9] was 8 µM (≈ 20 µg/mL) and the MIC [10] was 8 µM (≈ 20 µg/mL). For the same compound, the MIC [11] was 8 µM (≈ 20 µg/mL), the MIC [12] was 4 µM (≈ 9.98 µg/mL) and the MIC [13] was 8 µM (≈ 20 µg/mL). It also gave an MIC [14] of 8 µM (≈ 20 µg/mL), an MIC [15] of 2 µM (≈ 4.99 µg/mL) and an MIC [16] of 2 µM (≈ 4.99 µg/mL). For the same compound, the MIC [17] was 1 µM (≈ 2.5 µg/mL), the MIC [18] was 8 µM (≈ 20 µg/mL) and the MIC [19] was 2 µM (≈ 4.99 µg/mL). For the same compound, the MIC [20] was 1 µM (≈ 2.5 µg/mL), the MIC [21] was 8 µM (≈ 20 µg/mL) and the MIC [22] was 8 µM (≈ 20 µg/mL). It also gave an MIC [23] of 1 µM (≈ 2.5 µg/mL), an MIC [24] of 2 µM (≈ 4.99 µg/mL) and an MIC [25] of 8 µM (≈ 20 µg/mL). For the same compound, the MIC [26] was 2 µM (≈ 4.99 µg/mL), the MIC [27] was 2 µM (≈ 4.99 µg/mL) and the MIC [28] was 2 µM (≈ 4.99 µg/mL). The MIC [29] was 2 µM (≈ 4.99 µg/mL), the MIC [30] was 8 µM (≈ 20 µg/mL) and the MIC [31] was 4 µM (≈ 9.98 µg/mL). For the same compound, the MIC [32] was 2 µM (≈ 4.99 µg/mL), the MIC [33] was 4 µM (≈ 9.98 µg/mL) and the MIC [34] was 8 µM (≈ 20 µg/mL). It also gave an MIC [35] of 2 µM (≈ 4.99 µg/mL) and an MIC [36] of 4 µM (≈ 9.98 µg/mL).
With CC[C@H](C)[C@H](NC(=O)CN)C(=O)NCC(=O)N[C@@H](CC(=O)O)C(=O)N[C@H](C(=O)N[C@@H](CC(C)C)C(=O)N[C@@H](CCCCN)C(=O)N[C@@H](CC(N)=O)C(=O)N[C@@H](CC(C)C)C(=O)N[C@@H](C)C(=O)N[C@@H](CCCCN)C(=O)N[C@@H](C)C(=O)N[C@@H](C)C(=O)NCC(=O)N[C@@H](CCCCN)C(=O)N[C@@H](C)C(=O)N[C@@H](C)C(=O)N[C@@H](CC(C)C)C(=O)N[C@@H](Cc1cnc[nH]1)C(=O)N[C@@H](C)C(=O)N[C@H](C(=O)NCC(=O)N[C@@H](CCC(=O)O)C(=O)N[C@@H](CO)C(=O)N[C@@H](CC(C)C)C(N)=O)C(C)C)[C@@H](C)CC [GIGDILKNLAKAAGKAALHAVGESL] the MIC [37] was 77 µM (≈ 186 µg/mL), the MIC [38] was 2 µM (≈ 4.83 µg/mL) and the MIC [39] was 19 µM (≈ 45.9 µg/mL). The MIC [40] was 19 µM (≈ 45.9 µg/mL).
For CC[C@H](C)[C@H](NC(=O)[C@H](Cc1cnc[nH]1)NC(C)=O)C(=O)N[C@H](C(=O)N[C@@H](CCCCN)C(=O)NCC(=O)N[C@@H](CC(C)C)C(N)=O)[C@@H](C)CC [HIIKGL], the MIC [41] was no less than 147 µM and the MIC [42] was no less than 147 µM.
